We go through 3 compounds from US20240190838A1, “LZK-TARGETING DEGRADERS AND METHODS OF USE” (The U.S.A., as represented by the Secretary, Department of …, priority 2020, published 2024).

Usually IC50 stands for the concentration at which inhibition is half-maximal.

For one experiment, the system named is GOF mutant p53 (R175H). Nature of the experiment: GOF mutant p53 abundance in CAL33 cells (immunoblot). It is filed as cell-based. How it is done:
(§1) Generally, cells were plated in six-well or 35-mm plates for 24 hours, after which doxycycline was added or treatment with specific inhibitor was administered using […] for 48 hours. After appropriate treatment time, cells were washed with ice-cold phosphate-buffered saline without Ca and Mg (Quality Biological) and then lysed on ice with RIPA buffer (50 mM NaCl, 1.0% o IGEPAL® CA-630, 0.5% o sodium deoxycholate, 0.10% SDS, 50 mM Tris, pH 8.0) (Sigma-Aldrich) supplemented with protease inhibitor tablet (Sigma-Aldrich) and phosphatase inhibitor cocktails 2 and 3 (Sigma-Aldrich) followed by centrifugation at 15,000 rpm for 10 minutes at 4° C. Protein concentrations were determined from the cell lysate by using 660 nm Protein Assay Reagent (Pierce). Cell extracts were denatured, subjected to SDS-PAGE, transferred to PVDF membranes (Bio-Rad) and blocked for 2 hours using 5 bovine serum albumin (BSA) in phosphate-buffered saline and 0.10 Tween® 20 (PBS-T). The membranes were incubated with the specific antibodies overnight in […] at 4° C. followed by a 1 hour incubation with the appropriate horseradish peroxidase-conjugated secondary antibodies and signal was detected by chemiluminescence (Thermo Fisher).
In general terms: Immunoblotting shows a protein as a band on a membrane.

The test system of another experiment is BEAS-2B cells. Put plainly: Colony formation assay, BEAS-2B. It counts as cell-based, human. How it is done: (§2) Crystal violet assays were used to assess relative cell growth and survival after treatment with specific compounds. In general, cells were plated in triplicate in 12-well plates for 24 hours before drug treatments were added using 10% FBS media. The plates were incubated for 14 days, with the media and drug being replaced every 48 hours. The cells were then washed with phosphate-buffered saline and fixed in ice-cold methanol before being stained with 0.5% crystal violet (Sigma-Aldrich) in 25% methanol. Images were taken using a ChemiDoc MP Imaging System (Bio Rad), and for quantification, the crystal violet stain was dissolved in 33% acetic acid, incubated for 20 minutes with shaking, and read at 595 nm using iMark™ Microplate Absorbance Reader (Bio-Rad). Graphs display percent colony formation relative to the DMSO-treated control sample.

Experiment [1] relates to CDK2 activity in SCC-15 HNSCC cells. Put plainly: Live-cell imaging of CDK2 activity and cell cycle in SCC-15 cells. It counts as cell-based. Particulars: for CDK2 activity over the cell cycle: compared to control. The procedure:
Cells were plated in 96-well plates with full growth media more than 24 hours prior to imaging, such that the density would remain sub-confluent until the end of the imaging period. Time-lapse imaging was performed in 290 μL full growth media. Images were taken in CFP and YFP channels every 12 minutes on a Nikon Ti2-E inverted microscope (Nikon) with a 20X 0.45NA objective. Total light exposure time was kept under 600 milliseconds for each time point. Cells were imaged in a humidified, 37° C. chamber at 5% CO2.
All image analyses were performed with custom MATLAB scripts as previously described (Cappell et al., Cell 2016, 166:167-180). In brief, optical illumination bias was empirically derived by sampling background areas across all wells in an imaging session, and was subsequently used to flatten all images. This enabled measurement and subtraction of a global background for each image. Cells were segmented for their nuclei based on H2B-mTurquoise. CDK2 activity was calculated by measuring the nuclear and cytoplasmic fluorescence of the DHB-mVenus protein. Cells were segmented for their cytoplasmic regions by spatially approximating a ring with an inner radius of 2 μm outside of the nuclear mask and an outer radius with a maximum of 10 μm outside of the nuclear mask. Regions within 10 μm of another nucleus were excluded. Cytoplasmic DHB-mVenus was calculated as the median intensity within the cytoplasmic ring, excluding pixel intensities indistinguishable from background.
Mitosis events were automatically identified using H2B-mTurquoise and called at anaphase when one cell split into two daughter cells, each with approximately 45-55% of the size of the mother cell. Cells were considered to have been arrested in the G2 phase if a second mitosis was not detected for more than 30 hours after the first mitosis. Following drug treatment, cells were categorized by their CDK2 activity two hours after anaphase. Cells with high CDK2 activity (defined as greater than 0.6) are considered to have immediately re-entered the cell cycle, cells with transiently low CDK2 activity (defined as less than 0.6 two hours after anaphase but rising to greater than 0.6 within the viewing time) are considered to have entered into a transient G0 state before eventually re-entering the cell cycle, and cells with low CDK2 activity (defined as less than 0.6 within the viewing time) are considered to have entered a prolonged G0 state (Arora et al., Cell Rep 2017, 19:1351-1364).

Another experiment has as its system c-MYC. Nature of the experiment: c-MYC abundance in CAL33 cells (immunoblot). It counts as cell-based. How it is done:
as §1

For a further experiment, the system named is BICR56 cells. Put plainly: MTS cell viability assay, BICR56. It is filed as cell-based. How it is done:
A Cell Titer 96 AQueous One Solution Cell Proliferation Assay (Promega) was used for MTS assays following the manufacturer's protocol. […] MTS was added, cells were incubated for two hours, and absorbance was measured at 490 nm using iMark™ Microplate Absorbance Reader (Bio-Rad). Graphs display percent cell viability relative to the DMSO-treated control sample. EC50 values were determined using GraphPad Prism 8.

For another experiment, the system named is Detroit 562 cells. Put plainly: Colony formation assay, Detroit 562. It counts as cell-based. How it is done: as §2
The mark [2] stands for this setting: various concentrations, 24 and 48 hours.

`N#Cc1ccnc(Nc2cc(C3CCN(C4COC4)CC3)cc(N3CCC(F)(F)C3)n2)c1` [GNE-3511]: the GOF-p53 expression levels result in the experiment with GOF mutant p53 (R175H) (catalytic inhibitor treatment) is on record as “did not alter GOF-p53 expression levels”. The colony formation entry in the experiment with BEAS-2B cells (200 nM, 14 days, cells lacking amplified MAP3K13) is given as “only a minor reduction in colony formation”. Moreover, in experiment [1], the cell-cycle arrest result is “caused a G2-phase cell-cycle arrest”, the “fraction of cells entering a quiescent state” value was “increased fraction of cells entering a quiescent state” and the “CDK2 activity over the cell cycle” value was “slower increase in CDK2 activity over the cell cycle”. In addition, the “c-MYC levels over time” value in the experiment with c-MYC (500 nM, up to 72 hours) is listed as “reduction in c-MYC levels that was subsequently maintained for 72 hours”. The “rescue of loss of c-MYC by LZK^Q240S expression” value in the experiment on c-MYC (CAL33 cells) is “rescued loss in c-MYC levels”. The IC50 in the experiment with BICR56 cells (72 hours, read-out: IC50, viability in short-term MTS assay) is 410 ± 59.6 nM.

As for `CC(=O)N1CCC(c2cc(Nc3cc(C#N)ccn3)nc(N3CCC(F)(F)C3)c2)CC1` [LZK inhibitor 2], in the experiment with Detroit 562 cells (LZK inhibitor 2, concentration not stated), the colony formation entry is reported as “suppressed colony formation”.

As for `Cc1ncsc1-c1ccc([C@H](C)NC(=O)[C@@H]2C[C@@H](O)CN2C(=O)[C@@H](NC(=O)CCCCCCC(=O)N2CCC(c3cc(Nc4cc(C#N)ccn4)nc(N4CCC(F)(F)C4)c3)CC2)C(C)(C)C)cc1` [Compound 3], the “GOF mutant p53 (R175H) abundance” value in the experiment on GOF mutant p53 (R175H) (setting [2]) is “loss of both GOF mutant p53 (R175H) and c-MYC abundance”. Further, the clonogenic growth result with BEAS-2B cells (1 μM for 14 days, control cells) is “little effect on control cells”. Also, in experiment [1], the cell-cycle arrest entry is “caused a G2-phase cell-cycle arrest”, the “fraction of cells entering a quiescent state” value is “increased fraction of cells entering a quiescent state” and the “CDK2 activity over the cell cycle” value was “slower increase in CDK2 activity over the cell cycle”. Further, the “concentration with observed hook effect on c-MYC and GOF-p53 decreases” value in the experiment on c-MYC (24 hours and 48 hours) worked out at 10 µM. Moreover, the c-MYC abundance entry in the experiment on c-MYC (setting [2]) is “loss of both GOF mutant p53 (R175H) and c-MYC abundance”. Besides, the short-term cell viability entry with BICR56 cells is recorded as “reduced”. Also, the colony formation result with Detroit 562 cells (2.5 μM) is reported as “almost complete loss of colony formation”.
